In one test the target is T1, TRPC6 (Homo sapiens, UniProt Q9Y210).
T1 sequence (Q9Y210 1-931): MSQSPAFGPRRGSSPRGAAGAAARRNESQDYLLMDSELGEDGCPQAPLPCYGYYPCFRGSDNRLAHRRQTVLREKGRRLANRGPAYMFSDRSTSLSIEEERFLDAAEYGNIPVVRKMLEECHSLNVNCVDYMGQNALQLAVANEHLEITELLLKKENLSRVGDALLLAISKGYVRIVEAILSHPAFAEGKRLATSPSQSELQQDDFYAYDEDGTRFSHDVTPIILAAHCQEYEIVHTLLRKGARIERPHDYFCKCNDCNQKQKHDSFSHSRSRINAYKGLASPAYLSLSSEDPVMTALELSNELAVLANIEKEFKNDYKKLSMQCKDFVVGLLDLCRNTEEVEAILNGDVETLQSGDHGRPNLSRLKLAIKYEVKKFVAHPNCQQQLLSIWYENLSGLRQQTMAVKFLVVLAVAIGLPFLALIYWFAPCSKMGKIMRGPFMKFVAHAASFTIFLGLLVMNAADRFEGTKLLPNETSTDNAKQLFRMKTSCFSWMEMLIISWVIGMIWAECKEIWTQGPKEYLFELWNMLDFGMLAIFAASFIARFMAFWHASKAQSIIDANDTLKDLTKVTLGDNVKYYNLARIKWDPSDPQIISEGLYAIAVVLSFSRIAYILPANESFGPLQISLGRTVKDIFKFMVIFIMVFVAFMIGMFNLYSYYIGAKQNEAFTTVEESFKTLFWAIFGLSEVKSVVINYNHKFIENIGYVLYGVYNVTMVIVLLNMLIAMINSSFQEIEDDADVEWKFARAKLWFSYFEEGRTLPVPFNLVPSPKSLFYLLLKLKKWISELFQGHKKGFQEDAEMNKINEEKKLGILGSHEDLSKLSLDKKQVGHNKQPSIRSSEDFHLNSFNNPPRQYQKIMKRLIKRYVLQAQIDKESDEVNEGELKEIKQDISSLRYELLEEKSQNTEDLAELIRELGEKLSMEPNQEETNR
The conditions noted are these: cited from earlier work.

Another test concerns Na^+ current. The class given is cell-based, human.
The subject of another test is K^+ current. Description: Whole-cell patch clamp recording of K+ current in iPSC-derived neuron. The conditions noted are these: 20 mM. The class given is cell-based, human. Here is the method: Whole-cell patch clamp recordings were performed from cells cultured in the absence of astrocytes after approximately 6 weeks of differentiation. Before recordings, the growth media was removed and replaced with a bath solution comprised of (in mM): 130 NaCl, 3 KCl, 1 CaCl2, 1 MgCl2, HEPES, and 10 glucose (pH 7.4) at room temperature (22-24° C.). Electrodes for whole cell recording were pulled on a Flaming/Brown micropipette puller (Model P-87, Sutter Instrument, Novato, Calif.) from filamented borosilicate capillary glass (1.2 mm OD, 0.69 mm ID, World Precision Instruments, Sarasota, Fla.). The electrodes were fire-polished, and resistances were typically 2-5 MΩ for voltage-clamp experiments and 7-9 MΩ for current-clamp experiments. The pipette solution contained (in mM): 138 KCl, 0.2 CaCl2, 1 MgCl2, 10 HEPES (Na^+ salt), and 10 EGTA, (pH 7.4). The osmolarity of all solutions was adjusted to 290 mOsM. All chemicals were purchased from Sigma-Aldrich (St. Louis, Mo.) except MgCl2 (J.T. Baker, Phillipsburg, N.J.). Current traces in voltage clamp were leak-subtracted. Liquid junction potentials were nulled for each individual cell with the Axopatch 1C amplifier (Molecular Devises, Sunnyvale, Calif.).
A general note: Patch clamp records ionic current or voltage across a cell membrane.

Test [1] deals with human neurons. Description: Synapse quantification by Odyssey in-cell western in 96- or 24-well plates. The conditions noted are these: preliminary data. In kind it is cell-based. The text has this:
Fibroblasts from patients are reprogrammed to a pluripotent state and further differentiated into neuro progenitor cells (NPCs). These NPCs can be expanded in appropriated culture conditions and, under the right signals, induced to differentiated into postmitotic neurons (see schematic; FIG. 11). Several adjustments were done on the neuronal differentiation protocol, reducing by half the time needed to generate neurons from NPCs. Such adjustments include specific factors and cell manipulations at different stages of the protocol. At this stage, disease neurons can reveal a phenotype that is related to the mutations on the MeCP2 gene. We focused on synapse quantification. Instead of manual synapse counting, we are using an Odyssey machine that can estimate the number of synapses by detecting specific wavelengths in a 96- or 24-well plates (see FIG. 11). […] Alternatively, we are using specific synaptic tools to visualize synaptogeneses in real time that could be detected by any time-lapse fluorescence microscope.

The test system of test [2] is human neurons. The conditions noted are these: cited from earlier work.
Another test deals with TRPC6-mutant neurons. The test can be described thus: VGLUT1 puncta / glutamatergic synapse number in TRPC6-mutant neurons (rescue). The conditions noted are these: 10 ηg/mL for two weeks. The class given is cell-based, human. The method, then: Neuronal tracing was performed on neurons for which that the shortest dendrite was at least three-times longer than the cell soma diameter, using a semi-automatic ImageJ plug-in (NeuroJ). Spines and VGLUT1 puncta were quantified after three-dimensional reconstruction of z-stack confocal images. Only neurons with spines were scored. Pictures were taken randomly for each individual and from two different experiments, using at least two different clones. Quantification was done blindly to the genotype of the cells. All experiments were performed with independent clones and different controls. For the rescue experiments, 10 ηg/mL of IGF1 (Peprotech) was added to neuronal cultures for 2 weeks.

A further test concerns RTT-like symptoms. The conditions noted are these: mouse model; cited from earlier work.

In the case of `O=C(O)c1ccccc1Nc1cccc(C(F)(F)F)c1` [FFA, flufenamic acid], the “currents through TRPC6 channel” value at TRPC6 is “increases the amplitude”. Consider `NC1=N[C@H](O)[C@H]2[C@H]3O[C@]4(O)O[C@@H]([C@@H](O)[C@@]2(N1)[C@@H]4O)[C@]3(O)CO` [Tetrodotoxin (TTX), Tetrodotoxin], for which, in the test on Na^+ current, the “Na^+ current” value was “blocked”. Regarding `CC[N+](CC)(CC)CC` [tetraethalammonium (TEA), tetraethalammonium], the “K^+ current” value in the test with K^+ current is recorded as “blocked”. In the case of “IGF-1: Insulin-like growth factor 1 (IGF-1), also referred to as somatomedin C”, the “synapse number estimate (Odyssey), response to drug” value with human neurons [1] was “small alterations”. Besides, the RTT-like symptoms entry in the test with human neurons [2] and with RTT-like symptoms was “reversal” throughout. For the same compound, the synapse number entry in the test with human neurons [2] is listed as “increase”. The glutamatergic synapse number result with TRPC6-mutant neurons is reported as “increase”. In the case of `CC(C)=CCC[C@]1(C)[C@@H](CC=C(C)C)C[C@@]2(CC=C(C)C)C(=O)[C@]1(C(=O)C(C)C)C(=O)C(CC=C(C)C)=C2O` [Hyperforin, hyperforin], the TRPC6 activation result at TRPC6 was “specifically activates”.

Values taken from patent US20150119327A1, “DRUG SCREENING PLATFORM FOR RETT SYNDROME” (THE REGENTS OF THE UNIVERSITY OF CALIFORNIA, priority 2012, published 2015).
